Read-outs that look alike come from different tables or passages of the source.
Test system: Sprague Dawley rats Crl:CD
Assay type: in vivo, rat
Excerpt: In addition to the database described and utilized herein, other toxicology gene expression databases may be generated, and used to identify additional liver toxicity biomarkers, which may also be employed in the practice of the liver inflammation prediction methods of the invention. […] An example of compounds, dose levels, liver toxicity classifications and histopathology scores used in the Examples which follow are provided in Table 1. The compounds and dose levels are abbreviated in the Abbreviation Column. The Inflammation Score relates the histopathology liver inflammation, a score of “2” or higher indicates histopathology of increasing severity.
Identification of Correlating Genes: For the purpose of identifying candidate predictive genes, the database preferably includes histopathology scores for each animal which has been exposed to one or more agent(s). […] The scores are numerical scores that reflect the occurrence and severity of histopathological changes. These scores can be adjusted to have similar range to gene expression changes. […] Because the scores are numerical, they are suitable for use with a variety of statistical correlation and similarity measures.
Sprague Dawley rats Crl:CD from Charles River, Raleigh, N.C. were divided into treated rats that receive a specific concentration of the compound (see Table 1) and the control rats that only received the vehicle in which the compound is mixed (e.g., saline).
At specified timepoints (6 h, 24 h and 72 h) after administration (intraperitoneal route) of the compound, a set number of rats (usually 3 control and 3 treated) were euthanized and tissues collected. Each rat was heavily sedated with an overdose of CO2 by inhalation and a maximum amount of blood drawn. Exsanguination of the rat by this drawing of blood kills the rat. The method of collecting the tissues is very important and ensures preserving the quality of the mRNA in the tissues. The body of the rat was then opened up and prosectors rapidly removed the tissues (including liver) and immediately placed them into liquid nitrogen. […] The organs/tissues were then packaged into well-labeled plastic freezer quality bags and stored at −80 degrees until needed for isolation of the mRNA from a portion of the organ/tissue sample.
Correlation with Histopathology Scores: Histopathology scores for each animal (assigned on a compound-dose basis as indicated in Table 1) were entered with gene expression data by using the GeneSpring™ ‘Drawn Gene’ function. Correlations between inflammation histopathology scores and gene expression were conducted with the distance measures listed below: […]

[1] = 1 mg/kg i.p., 72 h, 1=no histopathology, 2 or higher=increasing severity
[2] = 2 mg/kg i.p., 72 h, 1=no histopathology, 2 or higher=increasing severity
[3] = 4 mg/kg i.p., 72 h, 1=no histopathology, 2 or higher=increasing severity
[4] = Sprague Dawley Crl:CD, rat, in vivo
[5] = 20 mg/kg i.p., 72 h, 1=no histopathology, 2 or higher=increasing severity
[6] = 80 mg/kg i.p., 72 h, 1=no histopathology, 2 or higher=increasing severity
[7] = 250 mg/kg i.p., 72 h, 1=no histopathology, 2 or higher=increasing severity
[8] = 1000 mg/kg i.p., 72 h, 1=no histopathology, 2 or higher=increasing severity
[9] = 0.25 ml/kg i.p., 72 h, 1=no histopathology, 2 or higher=increasing severity
[10] = 1 ml/kg i.p., 72 h, 1=no histopathology, 2 or higher=increasing severity
[11] = 5 mg/kg i.p., 72 h, 1=no histopathology, 2 or higher=increasing severity
[12] = 16 mg/kg i.p., 72 h, 1=no histopathology, 2 or higher=increasing severity
[13] = 8 mg/kg i.p., 72 h, 1=no histopathology, 2 or higher=increasing severity
[14] = 30 mg/kg i.p., 72 h, 1=no histopathology, 2 or higher=increasing severity
[15] = Sprague Dawley Crl:CD, rat, in vivo, ip
[16] = 0.5 mg/kg i.p., 72 h, 1=no histopathology, 2 or higher=increasing severity
[17] = 1.3 mg/kg i.p., 72 h, 1=no histopathology, 2 or higher=increasing severity
[18] = 38 mg/kg i.p., 72 h, 1=no histopathology, 2 or higher=increasing severity
[19] = 150 mg/kg i.p., 72 h, 1=no histopathology, 2 or higher=increasing severity

## [Cl][Cd][Cl] [cadmium chloride]
1 mg/kg i.p., 72 h
  Liver Inflammation: no
  Liver Necrosis: no
[1]
  Inflamm. Score: 1
  Necr. Score: 1
2 mg/kg i.p., 72 h
  Liver Inflammation: no
  Liver Necrosis: no
[2]
  Inflamm. Score: 1
  Necr. Score: 1
4 mg/kg i.p., 72 h
  Liver Inflammation: yes
  Liver Necrosis: yes
[3]
  Inflamm. Score: 2
  Necr. Score: 3

## CC(=O)Nc1ccc(O)cc1 [acetaminophen]
[4]
  Inflamm. Score: 1
rat, in vivo
  Liver Inflammation: no

## CCC1(c2ccccc2)C(=O)NC(=O)NC1=O [phenobarbital]
20 mg/kg i.p., 72 h
  Liver Inflammation: no
  Liver Necrosis: no
[5]
  Inflamm. Score: 1
  Necr. Score: 1
80 mg/kg i.p., 72 h
  Liver Inflammation: no
  Liver Necrosis: no
[6]
  Inflamm. Score: 1
  Necr. Score: 1

## NC(=O)NO [hydroxyurea]
250 mg/kg i.p., 72 h
  Liver Inflammation: no
  Liver Necrosis: no
[7]
  Inflamm. Score: 1
  Necr. Score: 1
1000 mg/kg i.p., 72 h
  Liver Inflammation: no
  Liver Necrosis: no
[8]
  Inflamm. Score: 1
  Necr. Score: 1

## CN(C)[C@@H]1C(O)=C(C(N)=O)C(=O)[C@@]2(O)C(O)=C3C(=O)c4c(O)cccc4[C@@](C)(O)[C@H]3C[C@@H]12 [tetracycline]
[4]
  Inflamm. Score: 1
rat, in vivo
  Liver Inflammation: no

## Cn1cnc([N+](=O)[O-])c1Sc1ncnc2nc[nH]c12 [azathioprine]
[4]
  Inflamm. Score: 1
  Necr. Score: 1
rat, in vivo
  Liver Inflammation: no
  Liver Necrosis: no

## ClC(Cl)(Cl)Cl [carbon tetrachloride]
0.25 ml/kg i.p., 72 h
  Liver Inflammation: no
  Liver Necrosis: yes
[9]
  Inflamm. Score: 1
  Necr. Score: 3
1 ml/kg i.p., 72 h
  Liver Inflammation: yes
  Liver Necrosis: yes
[10]
  Inflamm. Score: 3
  Necr. Score: 6
High dose
  liver necrosis or necrosis with inflammation: produced liver necrosis or necrosis with inflammation
Low dose
  liver necrosis or necrosis with inflammation: not at the low dose

## C[C@@H]1[C@H](O)[C@@H](C)/C=C/C=C/C=C/C=C/C=C/C=C/C=C/[C@H](O[C@@H]2O[C@H](C)[C@@H](O)[C@H](N)[C@@H]2O)C[C@@H]2O[C@](O)(C[C@@H](O)C[C@@H](O)[C@H](O)CC[C@@H](O)C[C@@H](O)CC(=O)O[C@H]1C)C[C@H](O)[C@H]2C(=O)O [amphotericin B]
5 mg/kg i.p., 72 h
  Liver Inflammation: no
  Liver Necrosis: no
[11]
  Inflamm. Score: 1
  Necr. Score: 1
20 mg/kg i.p., 72 h
  Liver Inflammation: no
  Liver Necrosis: no
[5]
  Inflamm. Score: 1
  Necr. Score: 1

## O=NN(CCCl)C(=O)NCCCl [carmustine]
16 mg/kg i.p., 72 h
  Liver Inflammation: no
  Liver Necrosis: no
[12]
  Inflamm. Score: 1
  Necr. Score: 1

## CN(C)CCCN1c2ccccc2Sc2ccc(Cl)cc21 [chlorpromazine]
8 mg/kg i.p., 72 h
  Liver Inflammation: no
  Liver Necrosis: no
[13]
  Inflamm. Score: 1
  Necr. Score: 1
30 mg/kg i.p., 72 h
  Liver Inflammation: no
  Liver Necrosis: no
[14]
  Inflamm. Score: 1
  Necr. Score: 1

## C=CCN1CC[C@]23c4c5ccc(O)c4O[C@H]2C(=O)CC[C@@]3(O)[C@H]1C5 [naloxone]
[4]
  Inflamm. Score: 1
  Necr. Score: 1
[15]
  Inflamm. Score: 1
  Necr. Score: 1
rat, in vivo
  Liver Inflammation: no
  Liver Necrosis: no
rat, in vivo, ip
  Liver Inflammation: no
  Liver Necrosis: no

## C[C@@H]1C[C@@H]([C@H](O)CC2CC(=O)NC(=O)C2)C(=O)[C@@H](C)C1 [cycloheximide]
0.5 mg/kg i.p., 72 h
  Liver Inflammation: no
  Liver Necrosis: no
[16]
  Inflamm. Score: 1
  Necr. Score: 1
2 mg/kg i.p., 72 h
  Liver Inflammation: no
  Liver Necrosis: no
[2]
  Inflamm. Score: 1
  Necr. Score: 1

## NNc1ccccc1 [phenylhydrazine]
20 mg/kg i.p., 72 h
  Liver Inflammation: no
  Liver Necrosis: no
[5]
  Inflamm. Score: 1
  Necr. Score: 1
80 mg/kg i.p., 72 h
  Liver Inflammation: no
  Liver Necrosis: no
[6]
  Inflamm. Score: 1
  Necr. Score: 1

## lipopolysaccharide
2 mg/kg i.p., 72 h
  Liver Inflammation: no
  Liver Necrosis: no
[2]
  Inflamm. Score: 1
  Necr. Score: 1
8 mg/kg i.p., 72 h
  Liver Inflammation: yes
  Liver Necrosis: yes
[13]
  Inflamm. Score: 2
  Necr. Score: 6
High dose
  liver necrosis or necrosis with inflammation: produced liver necrosis or necrosis with inflammation
Low dose
  liver necrosis or necrosis with inflammation: not at the low dose

## CN(Cc1cnc2nc(N)nc(N)c2n1)c1ccc(C(=O)N[C@@H](CCC(=O)O)C(=O)O)cc1 [methotrexate]
1.3 mg/kg i.p., 72 h
  Liver Inflammation: no
  Liver Necrosis: no
[17]
  Inflamm. Score: 1
  Necr. Score: 1
5 mg/kg i.p., 72 h
  Liver Inflammation: no
  Liver Necrosis: no
[11]
  Inflamm. Score: 1
  Necr. Score: 1

## COc1ccc(C[C@H](N)C(=O)N[C@H]2[C@@H](O)[C@H](n3cnc4c(N(C)C)ncnc43)O[C@@H]2CO)cc1 [puromycin]
38 mg/kg i.p., 72 h
  Liver Inflammation: no
  Liver Necrosis: no
[18]
  Inflamm. Score: 1
  Necr. Score: 1
150 mg/kg i.p., 72 h
  Liver Inflammation: no
  Liver Necrosis: no
[19]
  Inflamm. Score: 1
  Necr. Score: 1
